Experimental data: ChEMBL document CHEMBL1154700, “3D-QSAR studies on unsaturated 4-azasteroids as human 5alpha-reductase inhibitors: a self organizing molecular field analysis approach” (Eur J Med Chem, 2010)

Species: Homo sapiens
Assay: Inhibition of human 5 alpha reductase assessed as -log of ratio of IC50 of drug to the IC50 of reference compound

-log(RatioIC50) | Compound
-0.079 | CC(C)(C)CC(C)(C)NC(=O)[C@H]1CC[C@H]2[C@@H]3CC[C@H]4NC(=O)C=C[C@]4(C)[C@H]3CC[C@]12C
-2 | CCOC(=O)/C=C1\CC[C@H]2[C@@H]3CC=C4N(C)C(=O)CC[C@]4(C)[C@H]3CC[C@]12C
-0.255 | CC(C)CC(=O)[C@H]1CC[C@H]2[C@@H]3CC[C@H]4NC(=O)C=C[C@]4(C)[C@H]3CC[C@]12C
-1.56 | COC(=O)[C@H]1CC[C@H]2[C@@H]3CC[C@H]4NC(=O)C=C[C@]4(C)[C@H]3CC[C@]12C
-1.7 | CCC(C)C(=O)[C@H]1CC[C@H]2[C@@H]3CC[C@H]4N(C)C(=O)C=C[C@]4(C)[C@H]3CC[C@]12C (stereo partly specified)
-1.18 | CCNC(=O)[C@H]1CC[C@H]2[C@@H]3CC[C@H]4NC(=O)C=C[C@]4(C)[C@H]3CC[C@]12C
-0.204 | CC(C)N(C(=O)[C@H]1CC[C@H]2[C@@H]3CC=C4N(C)C(=O)CC[C@]4(C)[C@H]3CC[C@]12C)C(C)C
-0.301 | CCN(CC)C(=O)/C=C/[C@H]1CC[C@H]2[C@@H]3CC[C@H]4N(C)C(=O)CC[C@]4(C)[C@H]3CC[C@]12C
-1.34 | CCN(CC)C(=O)[C@H]1CC[C@H]2[C@@H]3CC[C@H]4N(C)C(=O)C=C[C@]4(C)[C@H]3CC[C@]12C
-0.881 | CCC(C)C(=O)[C@H]1CC[C@H]2[C@@H]3CC[C@H]4NC(=O)C=C[C@]4(C)[C@H]3CC[C@]12C (stereo partly specified)
-0.653 | CCN(CC)C(=O)[C@H]1CC[C@H]2[C@@H]3CC=C4N(C)C(=O)CC[C@]4(C)[C@H]3CC[C@]12C
-0.477 | CN1C(=O)C=C[C@]2(C)[C@H]3CC[C@]4(C)[C@@H](C(=O)NC(C)(C)CC(C)(C)C)CC[C@H]4[C@@H]3CC[C@@H]12
-1.48 | COC(=O)[C@@H](C)[C@H]1CC[C@H]2[C@@H]3CC[C@H]4NC(=O)C=C[C@]4(C)[C@H]3CC[C@]12C
-2.18 | COC(=O)[C@@H](C)[C@H]1CC[C@H]2[C@@H]3CC[C@H]4N(C)C(=O)C=C[C@]4(C)[C@H]3CC[C@]12C
-0.204 | CC(C)N(C(=O)[C@H]1CC[C@H]2[C@@H]3CC[C@H]4NC(=O)C=C[C@]4(C)[C@H]3CC[C@]12C)C(C)C
-0.778 | CN1C(=O)C=C[C@]2(C)[C@H]3CC[C@]4(C)[C@@H](C(=O)NC(C)(C)C)CC[C@H]4[C@@H]3CC[C@@H]12
-3 | C[C@]12C=CC(=O)N[C@@H]1CC[C@@H]1[C@@H]2CC[C@@]2(C)[C@H]1CC[C@@]21CCCO1
-3.1 | CN1C(=O)C=C[C@]2(C)[C@H]3CC[C@@]4(C)[C@@H](CC[C@@]45CCCO5)[C@@H]3CC[C@@H]12
-2.18 | CCNC(=O)[C@H]1CC[C@H]2[C@@H]3CC[C@H]4N(C)C(=O)C=C[C@]4(C)[C@H]3CC[C@]12C
-1.52 | CN1C(=O)C=C[C@]2(C)[C@H]3CC[C@]4(C)[C@@H](C(=O)c5ccc[nH]5)CC[C@H]4[C@@H]3CC[C@@H]12
-1.92 | C[C@]12C=CC(=O)N[C@@H]1CC[C@@H]1[C@@H]2CC[C@]2(C)[C@@H](C(N)=O)CC[C@@H]12
-1.43 | CC(C)N(C(=O)[C@H]1CC[C@H]2[C@@H]3CC=C4N(C)C(=O)C=C[C@]4(C)[C@H]3CC[C@]12C)C(C)C
-0.602 | CC(C)N(C(=O)[C@H]1CC[C@H]2[C@@H]3CC=C4NC(=O)CC[C@]4(C)[C@H]3CC[C@]12C)C(C)C
-1.48 | CC(C)CC(=O)[C@H]1CC[C@H]2[C@@H]3CC[C@H]4N(C)C(=O)C=C[C@]4(C)[C@H]3CC[C@]12C
-0.785 | CCN(CC)C(=O)[C@H]1CC[C@H]2[C@@H]3CC[C@H]4NC(=O)C=C[C@]4(C)[C@H]3CC[C@]12C
-1 | C[C@]12C=CC(=O)N[C@@H]1CC[C@@H]1[C@@H]2CC[C@]2(C)[C@@H](C(=O)c3ccc[nH]3)CC[C@@H]12
-1 | CC(C)N(C(=O)[C@H]1CC[C@H]2[C@@H]3CC[C@H]4N(C)C(=O)C=C[C@]4(C)[C@H]3CC[C@]12C)C(C)C
0 | C[C@]12C=CC(=O)N[C@@H]1CC[C@@H]1[C@@H]2CC[C@]2(C)[C@@H](C(=O)Sc3ccccn3)CC[C@@H]12
0.26 | CC(C)(C)NC(=O)[C@H]1CC[C@H]2[C@@H]3CC[C@H]4NC(=O)C=C[C@]4(C)[C@H]3CC[C@]12C

Compound | -log(RatioIC50)
C[C@]12C=CC(=O)N[C@@H]1CC[C@@H]1[C@@H]2CC[C@]2(C)[C@@H](O)CC[C@@H]12 | -2
CNC(=O)[C@H]1CC[C@H]2[C@@H]3CC=C4N(C)C(=O)CC[C@]4(C)[C@H]3CC[C@]12C | -1.57
